Our source for the melting point values is a melting point compilation (Tetko et al.; mined from patent text by program, amines drawn as free bases though some values may be those of a salt).

Where only a bound is given, the exact number is not on record here.

For `C#CC(O)(CO)C(O)c1ncnc2c1ncn2Cc1ccc2c(c1)Nc1nccnc1S2` (configuration not stated), the melting point lay in the range of 79 to 84 °C. The result for `COc1ccc(OC)c(CCc2ccc3ncn(C)c(=O)c3c2)c1` reads 83 to 85 °C; that for `N#Cc1nn(-c2c(Cl)cc(C(F)(F)F)cc2Cl)c([N+](=O)[O-])c1OC(F)F`, 72.5 to 74 °C. Regarding `COc1ccc(-c2nc(Sc3cccc(OC)c3)n(C3CCCCO3)c2-c2ccc(OC)cc2)cc1` (configuration not stated), the melting point turned out to be 123 °C.

In turn, `CCOC(=O)COc1cc2onc(-c3ccccc3F)c2cc1Br` displayed a melting point of 130 to 132 °C. Take `C1CN2CCN3CCN(CCN1)P23`: the melting point lay within 109 to 111 °C. As to `O=C(NCCC(O)(c1ccccc1)c1ccccc1)c1ccccc1`, the melting point fell in the range of 145 to 146 °C. Regarding `O=C(Nc1ccc(F)cc1)NN(c1ccccc1)c1ccccc1`, the melting point was found to be 214 °C. As for `Cc1nc(NC(=O)N(C)C)sc1C`, the figure is 202 to 204 °C; as for `CCOc1ccccc1C1CN=C(NC(=O)OC)N1C` (configuration not stated), 137 to 138 °C; as for `Cc1cc(N2C(=O)c3ccccc3C2=O)c(C)cc1N`, 167 to 169 °C. `CCC(Nc1ncnc2[nH]cnc12)c1oc2cccc(F)c2c(=O)c1-c1ccccc1` (configuration not stated) returned a melting point of 210 to 212 °C. The compound `COc1cc(C2CCN(CC(N)=O)CC2)ccc1Nc1ncc2ccc(-c3cccc(S(=O)(=O)NC(C)(C)C)c3)n2n1` showed a melting point of 250 to 252 °C. `Cn1c(C(F)F)nn(-c2cc(O)c(Cl)cc2Cl)c1=O`: the melting point lay within 176 to 179 °C. On to `CCCC(=O)c1cc2c(=O)c(C(=O)O)c[nH]c2cc1C`, for which the melting point is 249 to 252 °C. With `CCN(CC)C(=O)COc1ccn2nc(-c3ccccc3)c(-c3ccc(=O)n(C(C)C)n3)c2c1`, the melting point is 125 to 126 °C. The result for `CCCCc1nc(Cl)c(CC(=O)OC)n1Cc1ccc(NS(=O)(=O)C(F)(F)F)cc1` reads 154 to 157 °C.

As to `CC(=NC(=Nc1ccccc1)N1CCOCC1)NCCO`, the melting point lay within 132 to 134 °C. Compound `COc1cc2c(cc1Nc1ncc(Cl)c(Nc3ccccc3S(=O)(=O)N(C)C)n1)CCN(CC(=O)N1CCCC1)CC2` came in with a melting point of 75 to 93 °C.

Turning to `Nc1nnc2c3c(c(N4CCOCC4)nn12)CCCC3`, the melting point was 260 to 262 °C. `CC(=O)c1c(C)nc(C)nc1NCc1ccc(-c2ccccc2-c2nnnn2C(C)(C)C)cc1` displayed a melting point of 131 to 132 °C. In turn, `c1coc(-c2cc3[nH]ccn3n2)c1` displayed a melting point of 186 to 188 °C. The compound `CCC(=O)NC[C@H]1CN(c2ccc3c(c2)C[C@@H](C)N3C(=O)OCc2ccccc2)C(=O)O1` returned a melting point of 181 to 183 °C. As for `CC1=C(C)C(=O)C(CCCCO)=C(C)C1=O`, the figure is 36 to 38 °C; as for `COc1cc([N+](=O)[O-])c2nccc(C)c2c1OCCCCCc1cccs1`, 51 to 54 °C. `O=C1Nc2cc(Cl)ccc2OC1CCCBr` (configuration not stated) registered a melting point of 157 to 158 °C. Turning to `COC(=O)CCCOc1cc(C(=O)O)ccc1NC(=O)NC(=O)c1cc(F)c(F)cc1Cl`, the melting point was determined as 227 °C. In turn, `CN1C(=O)Nc2ccc(-c3cccc(Cl)c3)cc2C1(C)C1CC1` (configuration not stated) returned a melting point of 193 to 194 °C. In turn, `COCCOc1ccc2cc3ccccc3cc2c1C=O` registered a melting point of 114 to 117 °C. `Clc1ccc2c(c1)C=C(Cn1ccnc1)c1ccsc1S2` came in with a melting point of 154 to 156 °C. `CCOC(=O)C1=COc2ccccc2O1`: the melting point was determined as 42 °C. As for `COC(=O)CCCOc1cc([N+](=O)[O-])c(CBr)cc1OC`, the figure is 68 to 70 °C.

For the compound `NC(=S)C(CN1CCOCC1)c1ccccn1` (configuration not stated), the melting point lay in the range of 102 to 104 °C. As to `CC(C)CN(C=NS(=O)(=O)c1c(Cl)nc2ccc(C3CC3)nn12)CC(C)C`, the melting point fell in the range of 154 to 160 °C. In turn, `Cc1cc(C)c2[nH]c(C(=O)NC(N)=S)cc2c1` registered a melting point of 220 to 223 °C. The compound `COc1cc(CO)ccc1OCc1nc(-c2ccccc2)cn1C` yielded a melting point of 126 to 127 °C. For `COc1cc(OC)c(-c2cccs2)cc1/C=C/C(=O)c1ccc(S(=O)(=O)NCC(=O)O)cc1`, the melting point lay within 100 to 101 °C. For `CCc1ccc(-c2coc3c(C)c(C)c(N)c(C)c23)cc1`, the melting point was in the range of 68 to 69 °C. For `CCN1c2ncc(CCc3ccc(N(C)S(C)(=O)=O)cc3)cc2C(=O)N(C)c2ccc(Cl)nc21`, the melting point lay within 196 to 198 °C.

On to `CC#CCOc1cc(Nc2cccc(F)c2F)ncn1`, for which the melting point came to 148 °C. The compound `CN(C)CCNC(=O)Cc1ccc(NC(=O)CCc2nc(-c3ccc4ccccc4c3)no2)cc1` gave a melting point of 173 to 174 °C. In turn, `O=C(O)c1cnc2c3ccccc3ccn2c1=O` showed a melting point of 219 to 231 °C.

The compound `CC(C)(C)OC(=O)c1nc(-c2ccccc2)[nH]c1-c1cnccn1` came in with a melting point of 196 to 197 °C. The result for `CCOC(=O)Cn1nc(-c2ccccc2O)nc1-c1ccccc1O` reads 172 to 174 °C; that for `CC(C)SCCCCCCCCCCCC(=O)Nc1ccccc1OCCCC(=O)O`, 82 to 84 °C; that for `N#Cc1ccc(N2C(=O)NC3(CCOCC3)C2=O)cc1C(F)(F)F`, 192 to 193 °C. `O=C1C(Cl)=C(N2CCN(c3nc4ccccc4o3)CC2)C(=O)c2nsnc21` had a melting point of 233 to 235 °C. Take `Cc1ccccc1-c1ccc2c(c1)c(C(=O)C(=O)O)cn2Cc1ccc(C(C)(C)C)cc1`: the melting point lay in the range of 97 to 98 °C.

Compound `CCOC(=O)C(CC(=S)c1ccc(-c2ccccc2)cc1)SC(C)=O` (configuration not stated) yielded a melting point of 71.5 to 72.5 °C. As for `C[C@H](Cn1ccnc1)NC(=O)c1c[nH]c2ncc(-c3nn(C)c4cc(Cl)ccc34)nc12`, the figure is 276 to 279 °C. The compound `N#Cc1ccccc1NC(=O)c1snnc1C1CC1` returned a melting point of 124 °C. In the case of `O=C1Cc2cc(CCN3CCC(c4noc5cc(F)ccc45)CC3)ccc2N1`, the melting point fell in the range of 199 to 204 °C. The compound `CCCn1c(=O)c2c(ncn2CCCCC(C)=O)n(C)c1=O` gave a melting point of 76 to 78 °C. As for `COc1ccc(Cl)cc1C(=O)NCCc1ccc(-c2ccc(O)cc2)cc1`, the figure is 169 °C; as for `FC(F)(F)Oc1cccc(-c2nc(-c3ccccn3)no2)c1`, 86 to 88 °C; as for `CCCCc1nc2c(N)nc3cc(C)ccc3c2o1`, 187 to 188 °C. On to `CCn1cc(C(=O)NCc2ccc(Cl)cc2)c(=O)c2cc(CCCO)sc21`, for which the melting point fell in the range of 144 to 146 °C. Compound `CNc1nc(Nc2ccc(S(C)=O)cc2)ncc1[N+](=O)[O-]` (configuration not stated) showed a melting point of 288 °C. The compound `CSC1=Nc2ccccc2C2=NCC(Cn3ccnc3)N12` (configuration not stated) came in with a melting point of 97 to 99 °C.

In the case of `C=C(c1ccc(-c2nnc(N)s2)cc1)C(O)(Cn1cncn1)c1ccc(F)cc1F` (configuration not stated), the melting point lay in the range of 118 to 121 °C. The compound `CCC(CCC(=C(C#N)C(N)=O)c1cc(O)c(O)c(O)c1)NC(=O)C(C#N)=Cc1cc(O)c(O)c(O)c1` (configuration not stated) registered a melting point greater than 300 °C. The compound `Cn1c(-c2ccc(OC3CCN(C4CCC4)CC3)cc2)nc2cccnc2c1=O` had a melting point of 182 to 183 °C. `c1ccc(-c2noc(COc3ccc(CCCn4ccnc4)cc3)n2)cc1` showed a melting point of 124 to 125 °C. The result for `COc1ccc(C2CNC(=O)C2)cc1OCCN1CCN(c2ccccc2)CC1` (configuration not stated) reads 140 to 141 °C; that for `CC(=O)ON=C(N)c1ccc(C(=O)NCCCNC(=O)[C@@H]2CCCN2S(=O)(=O)c2ccc(Cl)c(COc3cccn4cc(C)nc34)c2Cl)cc1`, 105 to 107 °C; that for `CCOC(=O)c1cccc(-n2c(C)nc3cnccc32)c1`, 120 to 121 °C.

The compound `CC1(C)CCC(C)(C)c2cc3c(cc21)CCc1c(-c2ccc(C(=O)O)cc2)c[nH]c1-3` registered a melting point of 268 to 270 °C.

In the case of `CS(=O)(=O)c1nnc(C(F)F)s1`, the melting point is 59 °C.

On to `CCOC1(CCC(=O)O)c2cc(C)c(OC(C)=O)cc2Oc2cc(OC(C)=O)c(C)cc21`, for which the melting point stood at 143 °C. The result for `COc1ccc(CCc2nc(C(F)(F)F)c[nH]2)cc1` reads 146 to 148 °C; that for `COC(=O)c1ccccc1Sc1cc(C=O)ccc1OC`, 99 to 104 °C.

Compound `CC(C)(C)OC(=O)c1sc(NCc2ccccc2)c2c1CCCC2=O` yielded a melting point of 125 to 126 °C. As for `CCOC(=O)Cn1c(=S)n(Cc2ccc(Cl)c(Cl)c2)c(=S)c2ccccc21`, the figure is 155 to 156 °C; as for `CCc1ncc2c3c(ccc2n1)OCC(CN1CC=C(c2c[nH]c4ccccc24)CC1)O3` (configuration not stated), 203 to 211 °C; as for `Cc1ccc(N2CN(c3ccccc3)C3=NN=CC3=C2N)cc1`, 248 to 250 °C. Compound `CC(C)C[C@H](NC(=O)c1ccc2c(c1)Nc1ccccc1S2)C(=O)N[C@H]1CCOC1OC(=O)CC(C)(C)C` (some centres not stated) had a melting point of 111 to 113 °C. As for `O=c1[nH]c2cc(Cl)ccc2c(O)c1-c1cccc(Cl)c1`, the figure is greater than 300 °C; as for `COc1c(NC(=O)c2c(F)cc(F)cc2F)cccc1C(=O)Nc1c(Cl)cc(C(F)(C(F)(F)F)C(F)(F)C(F)(F)F)cc1Br` (configuration not stated), 179 °C. For `Cc1ccc2ccc(C)c(O)c2c1`, the melting point is 124 to 125 °C. As for `CCCCc1cn(Cc2ccc(-c3ccccc3C(=O)O)cc2)c2cc(C(=O)O)ccc2c1=O`, the figure is greater than 260 °C. For the compound `O=C(O)C=CC=Cc1cc(O)c(O)cc1Cl`, the melting point is 203 to 206 °C. In the case of `C(#COCC1CCN(Cc2ccccc2)CC1)Cc1ccccc1`, the melting point was in the range of 120 to 123 °C. The compound `O=C(O)c1ccc(Sc2ccc(C(=O)O)c(C(=O)O)c2)cc1C(=O)O` gave a melting point of 202 to 203 °C. The result for `O=C(O)c1cn(C2CC2)c2c(F)c(N3CCNCC3)c(F)cc2c1=O` reads greater than 270 °C. As to `Cc1ccc(C(=O)NC(NC(=NC#N)Nc2cccnc2)C(C)(C)C)cc1` (single isomer, unassigned; (+)), the melting point lay within 188 to 189 °C. As for `CCN(CCc1ccc(Nc2ncc3c(n2)-c2ccccc2C(c2cccc(Br)c2)C3)cc1)Cc1ccncc1` (configuration not stated), the figure is 88 to 90 °C; as for `CCCc1c(OCC(O)CS(=O)(=O)c2ccc(C(=O)CCC(=O)O)cc2F)ccc(C(C)=O)c1O` (configuration not stated), 96 to 99 °C.
